Each structure is given as a SMILES string.

The first test deals with PKMYT1 (CDK1 pThr14) in FUOV1 cells. The test can be described thus: PKMYT1 cell-based activity assay, CDK1 pThr14 AlphaLISA in FUOV1 cells. Particulars: 2 h, 2 h compound incubation, read-out: FUOV-1 CDK1 pThr14 IC50. A digest of the protocol: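 IC50 was derived from AlphaLISA signal (excitation 680 nm, emission 615 nm) for phospho-Thr14 CDK1 in lysates. The detection antibodies were rabbit anti-pThr14 and mouse anti-total CDK1, each at 5 nM. FUOV1 ovarian cells were exposed to compound for 2 hours before lysis.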
A general note: Bead proximity is the source of the signal in Alpha formats.
Take `CO[C@H]1C[C@H](Nc2ncccc2-c2nc(C(N)=O)c(N)c(-c3c(C)ccc4[nH]ncc34)n2)C1` [Compound 551]: the concentration for half-maximal inhibition (IC50) amounted to 151 nM. On the same count and under the same terms, with `Cc1ccc2[nH]ncc2c1-c1nc(-c2cc(F)ccc2NS(=O)(=O)C(C)C)nc(C(N)=O)c1N` [Compound 530] the figure was 59 nM; with `Cc1ccc2[nH]ncc2c1-c1nc(-c2cc(F)cnc2NC2CC3(COC3)C2)nc(C(N)=O)c1N` [Compound 713], above 10000 nM. The same measure, in the same setting: the value for `Cc1ccc(-c2nc(C(N)=O)c(N)c(-c3c(C)ccc4[nH]ncc34)n2)c(Nc2ncccc2C)n1` [Compound 687] was 3 nM; that for `Cc1ccc2[nH]ncc2c1-c1nc(-c2ccc(F)cc2Nc2cncnc2C(=N)N)nc(C(N)=O)c1N` [Compound 694] was 423 nM.

Regarding `Cc1cnc(C)c(Nc2cc(F)ccc2-c2nc(C(N)=O)c(N)c(-c3c(C)ccc4[nH]ncc34)n2)n1` [Compound 719], the IC50 is 55 nM. On the same count and under the same terms, the value for `Cc1ccc2[nH]ncc2c1-c1nc(-c2ccc(F)cc2Nc2cncnc2C)nc(C(N)=O)c1N` [Compound 695] was 41 nM; that for `Cc1ccc2[nH]ncc2c1-c1nc(-c2cccnc2NC[C@@H]2CCO2)nc(C(N)=O)c1N` [Compound 650] was 179 nM. Same read-out and setting: with `Cc1ccc2[nH]ncc2c1-c1nc(-c2ccccc2CO)nc(C(N)=O)c1N` [Compound 779] the figure was 494 nM; with `COc1ccccc1-c1nc(C(N)=O)c(N)c(-c2c(C)ccc3[nH]ncc23)n1` [Compound 777], above 10000 nM; with `Cc1ccc2[nH]ncc2c1-c1nc(-c2ccc(F)nc2N[C@H]2C[C@@](C)(O)C2)nc(C(N)=O)c1N` [Compound 791], 61 nM. On the same count and under the same terms, with `Cc1cc(Nc2cc(F)ccc2-c2nc(C(N)=O)c(N)c(-c3c(C)ccc4[nH]ncc34)n2)ccn1` [Compound 564] the figure was 15 nM; with `Cc1ccc(Cl)c(Nc2ncccc2-c2nc(C(N)=O)c(N)c(-c3c(C)ccc4[nH]ncc34)n2)n1` [Compound 716], 13 nM.

Regarding `Cc1ccc2[nH]ncc2c1-c1nc(-c2cccnc2NC2CCOC(C)(C)C2)nc(C(N)=O)c1N` (stereo not shown) [Compound 592], the half-maximal inhibitory concentration (IC50) was 603 nM. Still for that read-out and setting: the value for `Cc1ccc2[nH]ncc2c1-c1nc(-c2ccc(C#N)nc2Nc2ncccc2F)nc(C(N)=O)c1N` [Compound 746] was 11 nM; that for `Cc1ccc2[nH]ncc2c1-c1nc(-c2cc(F)cnc2NC2CC(F)(F)C2)nc(C(N)=O)c1N` [Compound 678] was 31 nM; that for `Cc1ccc(Nc2ncccn2)c(-c2nc(C(N)=O)c(N)c(-c3c(C)ccc4[nH]ncc34)n2)c1` [Compound 646] was 91 nM. Same read-out and setting: with `Cc1ccc2[nH]ncc2c1-c1nc(-c2cnncc2NCC(F)(F)F)nc(C(N)=O)c1N` [Compound 669] the figure was above 10000 nM. On the same count and under the same terms, the value for `Cc1ccc2[nH]ncc2c1-c1nc(-c2cc(F)cnc2NC2CC(C)(C)C2)nc(C(N)=O)c1N` [Compound 732] was 534 nM; that for `Cc1ccc2[nH]ncc2c1-c1cc2c(oc3ccc(N4CCOCC4)nc32)c(C(N)=O)c1N` [Compound 652] was 266 nM. With `Cc1ccc2[nH]ncc2c1-c1nc(-c2cccnc2N[C@@H]2CCOC2)nc(C(N)=O)c1N` [Compound 547], the half-inhibitory concentration (IC50) turned out to be 50 nM.

`Cc1ccc2[nH]ncc2c1-c1nc(-c2cc(F)ccc2NC(=O)C2(C)CCOCC2)nc(C(N)=O)c1N` [Compound 505]: the IC50 is 36 nM. On to `Cc1ccc(-c2nc(C(N)=O)c(N)c(-c3c(C)ccc4[nH]ncc34)n2)c(Nc2ncccn2)n1` [Compound 764], for which the 50% inhibitory concentration (IC50) was 25 nM. The same measure, in the same setting: with `Cc1ccc2[nH]ncc2c1-c1nc(-c2cccnc2Nc2ncccc2C2CC2)nc(C(N)=O)c1N` [Compound 729] the figure was 57 nM; with `Cc1ccc2[nH]ncc2c1-c1nc(-c2cc(F)ccc2NS(=O)(=O)C2CCCC2)nc(C(N)=O)c1N` [Compound 531], 918 nM. Still for that read-out and setting: with `Cc1ccc2[nH]ncc2c1-c1nc(-c2cccnc2Nc2cncc(F)n2)nc(C(N)=O)c1N` [Compound 753] the figure was 59 nM. Same read-out and setting: with `Cc1ccc2[nH]ncc2c1-c1nc(-c2cccnc2Nc2cncnc2C)nc(C(N)=O)c1N` [Compound 717] the figure was 216 nM. Regarding `Cc1csc(Nc2cc(F)ccc2-c2nc(C(N)=O)c(N)c(-c3c(C)ccc4[nH]ncc34)n2)n1` [Compound 588], the half-maximal inhibitory concentration (IC50) amounted to 45 nM. On the same count and under the same terms, with `Cc1ccc2[nH]ncc2c1-c1nc(-c2cc(F)cnc2NC2CCC(F)(F)CC2)nc(C(N)=O)c1N` [Compound 731] the figure was 773 nM; with `Cc1ccc(F)c(Nc2ncccc2-c2nc(C(N)=O)c(N)c(-c3c(C)ccc4[nH]ncc34)n2)n1` [Compound 697], 2 nM.

The same test, now with this note: 2 h, 2 h incubation, read-out: FUOV-1 CDK1 pThr14 IC50.
As to `CC(=O)N1CCN(c2nccc(-c3cc(-c4c(C)ccc5[nH]ncc45)c(N)c(C(N)=O)n3)n2)CC1` [Compound 215], the 50% inhibitory concentration (IC50) was 399 nM. Same read-out and setting: with `Cc1ccc2[nH]ncc2c1-c1cc(-c2ccnc(OCc3nccn3C)n2)nc(C(N)=O)c1N` [Compound 301] the figure was 39 nM.

The test is the same for the next values; noted with them: 2 h, 2 hours with compound, read-out: FUOV-1 CDK1 pThr14 IC50.
Regarding `Cc1ccc2[nH]ncc2c1-c1nc(-c2ccc(C(F)F)nc2Nc2ncccn2)nc(C(N)=O)c1N` [Compound 928], the IC50 came out at 144 nM.

As to `Cc1ccc2[nH]ncc2c1-c1nc(-c2ccc(F)cc2Nc2ccnc(C3CC3)n2)nc(C(N)=O)c1N` [Compound 940], the IC50 came out at 269 nM.

Consider `Cc1ccc2[nH]ncc2c1-c1nc(-c2cccnc2NC(C)C)cc(C(N)=O)c1N` [Compound 866, 5-amino-2′-(isopropylamino)-6-(5-methyl-1H-indazol-4-yl)-[2,3′-bipyridine]-4-carboxamide], for which the IC50 was 62 nM. On the same count and under the same terms, the value for `Cc1cc(F)c2[nH]ncc2c1-c1nc(-c2ccc(F)nc2Nc2nccnc2C(F)F)nc(C(N)=O)c1N` [Compound 868] was 139 nM; that for `Cc1ccc(-c2nc(C(N)=O)c(N)c(-c3c(F)ccc4[nH]ncc34)n2)c(Nc2ncccc2F)n1` [Compound 952] was 1 nM; that for `[2H]C([2H])([2H])c1ccc2[nH]ncc2c1-c1nc(-c2cccnc2Nc2nc(C)ccc2F)nc(C(N)=O)c1N` [Compound 824] was 2 nM. Still for that read-out and setting: with `Cc1ccc(Cl)nc1Nc1nc(F)ccc1-c1nc(C(N)=O)c(N)c(-c2c(C)ccc3[nH]ncc23)n1` [Compound 943] the figure was 22 nM. Same read-out and setting: the value for `Cc1cc(F)c2[nH]ncc2c1-c1nc(-c2cc(F)cnc2N[C@H]2CCOC[C@H]2F)nc(C(N)=O)c1N` [Compound 887] was 104 nM; that for `[2H]C([2H])([2H])c1ccc2[nH]ncc2c1-c1nc(-c2cccnc2NC23CC(C(N)=O)(C2)C3)nc(C(N)=O)c1N` [Compound 962, 5-amino-2-(2-((3-carbamoylbicyclo[1.1.1]pentan-1-yl)amino)pyridin-3-yl)-6-(5-(methyl-d3)-1H-indazol-4-yl)pyrimidine-4-carboxamide] was 702 nM.

For the compound `Cc1cc(F)c2[nH]ncc2c1-c1nc(-c2cc(F)cnc2NCC(C)(C)C#N)nc(C(N)=O)c1N` [Compound 874], the IC50 was 121 nM. On the same count and under the same terms, the value for `Cc1ccc2[nH]ncc2c1-c1nc(-c2cccnc2Nc2nc(C(F)F)ccc2F)nc(C(N)=O)c1N` [Compound 842] was 3 nM. Still for that read-out and setting: with `COc1cc(-c2nc(C(N)=O)c(N)c(-c3c(C)ccc4[nH]ncc34)n2)c(Nc2ncccc2F)cn1` [Compound 976, 5-amino-2-(5-((3-fluoropyridin-2-yl)amino)-2-methoxypyridin-4-yl)-6-(5-methyl-1H-indazol-4-yl)pyrimidine-4-carboxamide] the figure was 22 nM. The same measure, in the same setting: with `Cc1ccc2[nH]ncc2c1-c1nc(-c2cc(F)cnc2N[C@@H]2CC[C@H](O)C2)nc(C(N)=O)c1N` [Compound 833] the figure was 47 nM; with `Cc1ccc2[nH]ncc2c1-c1nc(-c2cc(Cl)ncc2Nc2ncccc2F)nc(C(N)=O)c1N` [Compound 939], 9 nM; with `Cc1ccc2[nH]ncc2c1-c1nc(-c2cc(F)cnc2NC2CCN(CC(F)(F)F)CC2)nc(C(N)=O)c1N` [Compound 863], 2080 nM. Regarding `Cc1ccc2[nH]ncc2c1-c1nc(-c2cc(Cl)ncc2Nc2ncccn2)nc(C(N)=O)c1N` [Compound 955, 5-amino-2-(2-chloro-5-(pyrimidin-2-ylamino)pyridin-4-yl)-6-(5-methyl-1H-indazol-4-yl)pyrimidine-4-carboxamide], the IC50 amounted to 51 nM. On the same count and under the same terms, the value for `Cc1c(F)cc2[nH]ncc2c1-c1nc(-c2ccc(F)nc2Nc2nccnc2C(F)F)nc(C(N)=O)c1N` [Compound 854] was 88 nM; that for `Cc1ccc2n[nH]cc2c1-c1nc(-c2cc(F)cnc2N[C@H]2C[C@](O)(C(F)F)C2)nc(C(N)=O)c1N` [Compound 897] was 122 nM; that for `NC(=O)c1nc(-c2ccc(Cl)nc2Nc2ncccc2F)nc(-c2c(F)ccc3[nH]ncc23)c1N` [Compound 965] was 8 nM. Turning to `[2H]C([2H])([2H])c1ccc2[nH]ncc2c1-c1nc(-c2ccc(C(F)F)nc2Nc2nc(C)ncc2F)nc(C(N)=O)c1N` [Compound 973], the IC50 turned out to be 53 nM. Same read-out and setting: the value for `Cc1ccc2[nH]ncc2c1-c1nc(-c2cn(C(F)(F)F)nc2NC2CCOCC2)nc(C(N)=O)c1N` [Compound 910] was 200 nM; that for `Cc1ccc2[nH]ncc2c1-c1nc(-c2ccc(C#N)cc2N[C@H]2C[C@@](C)(O)C2)nc(C(N)=O)c1N` [Compound 822] was 172 nM. On the same count and under the same terms, the value for `[2H]C([2H])([2H])c1ccc2[nH]ncc2c1-c1nc(-c2ccc(F)nc2Nc2nc(C)ncc2F)nc(C(N)=O)c1N` [Compound 972] was 14 nM. The same measure, in the same setting: with `Cc1ccc2[nH]ncc2c1-c1nc(-c2ccc(F)cc2N[C@H]2C[C@@](C)(O)C2)nc(C(N)=O)c1N` [Compound 862] the figure was 121 nM; with `Cc1ccc2[nH]ncc2c1-c1nc(-c2ccc(Cl)nc2NC2CCOCC2)nc(C(N)=O)c1N` [Compound 803], 74 nM.

Staying with this test, now noted: 2 h compound incubation, read-out: FUOV-1 CDK1 pThr14 IC50.
On to `Cc1ccc2[nH]ncc2c1-c1cc2c(oc3ccc(NC4CCOCC4)nc32)c(C(N)=O)c1N` (atropisomer, axis not shown) [Compound 762], for which the IC50 is 24 nM.

A word on the IC50: it is the concentration needed to halve the response being measured.

These data come from patent publication US20250304537A1 (Repare Therapeutics Inc., priority 2022, published 2025).
